Laboratory results taken from PubChem BioAssay (NCI).
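Step 1: Grow cells in 96-well plates. Step 2: Expose to compound for 48 hours at 5 concentrations. Step 3: Interpolate endpoints linearly; if unreached, use highest concentration. GI50 = concentration required for 50% inhibition of growth. TGI: concentration producing complete growth inhibition.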

How the values were obtained:
Experiment in all cases: NCI anticancer screen, dose series, 48 h
MOLT-4 leukemia = test system: MOLT-4 leukemia
UACC-257 melanoma = test system: UACC-257 melanoma
IGROV1 ovarian = test system: IGROV1 ovarian
MCF7 breast = test system: MCF7 breast
COLO 205 colon = test system: COLO 205 colon
M14 melanoma = test system: M14 melanoma
HS 578T breast = test system: HS 578T breast
SK-MEL-2 melanoma = test system: SK-MEL-2 melanoma
U251 CNS = test system: U251 CNS
HCC-2998 colon = test system: HCC-2998 colon
NCI-H460 lung = test system: NCI-H460 lung
PC-3 prostate = test system: PC-3 prostate
SK-MEL-28 melanoma = test system: SK-MEL-28 melanoma
BT-549 breast = test system: BT-549 breast
DU-145 prostate = test system: DU-145 prostate
NCI-H522 lung = test system: NCI-H522 lung
SW-620 colon = test system: SW-620 colon
SNB-75 CNS = test system: SNB-75 CNS
SN12C renal = test system: SN12C renal
A498 renal = test system: A498 renal
K-562 leukemia = test system: K-562 leukemia
HOP-62 NSCLC = test system: HOP-62 NSCLC
HCT-15 colon = test system: HCT-15 colon
CAKI-1 renal = test system: CAKI-1 renal
A549 NSCLC = test system: A549 NSCLC
UACC-62 melanoma = test system: UACC-62 melanoma
MDA-MB-231 breast = test system: MDA-MB-231 breast
T-47D breast = test system: T-47D breast
RPMI-8226 leukemia = test system: RPMI-8226 leukemia
UO-31 renal = test system: UO-31 renal
OVCAR-5 ovarian = test system: OVCAR-5 ovarian
SR leukemia = test system: SR leukemia
SF-539 CNS = test system: SF-539 CNS
HL-60(TB) leukemia = test system: HL-60(TB) leukemia
SK-MEL-5 melanoma = test system: SK-MEL-5 melanoma
OVCAR-8 ovarian = test system: OVCAR-8 ovarian
CCRF-CEM leukemia = test system: CCRF-CEM leukemia
ACHN renal = test system: ACHN renal
KM12 colon = test system: KM12 colon
HT29 colon = test system: HT29 colon
MDA-MB-468 breast = test system: MDA-MB-468 breast
HOP-92 NSCLC = test system: HOP-92 NSCLC
SF-295 CNS = test system: SF-295 CNS
SK-OV-3 ovarian = test system: SK-OV-3 ovarian
OVCAR-3 ovarian = test system: OVCAR-3 ovarian
NCI-H226 lung = test system: NCI-H226 lung
OVCAR-4 ovarian = test system: OVCAR-4 ovarian
TK-10 renal = test system: TK-10 renal
SF-268 CNS = test system: SF-268 CNS
786-0 renal = test system: 786-0 renal
MDA-MB-435 = test system: MDA-MB-435
MALME-3M melanoma = test system: MALME-3M melanoma
SNB-19 CNS = test system: SNB-19 CNS
NCI-H23 lung = test system: NCI-H23 lung
LOX IMVI melanoma = test system: LOX IMVI melanoma
RXF 393 renal = test system: RXF 393 renal
HCT-116 colon = test system: HCT-116 colon

`O=C(Nc1ccc(I)cc1F)c1cc(-c2ccc(F)cc2F)ccc1O` gave a GI50 (MOLT-4 leukemia) of 2.58 µM, a TGI (MOLT-4 leukemia) of 9.32 µM and a GI50 (UACC-257 melanoma) of 2.41 µM. The TGI (UACC-257 melanoma) was 7.15 µM, the GI50 (IGROV1 ovarian) was 4.65 µM and the TGI (IGROV1 ovarian) was > 100 µM. For the same compound, the GI50 (MCF7 breast) was 2.7 µM, the TGI (MCF7 breast) was 11 µM and the GI50 (COLO 205 colon) was 1.91 µM. The TGI (COLO 205 colon) was 4.13 µM, the GI50 (M14 melanoma) was 2.05 µM and the TGI (M14 melanoma) was 5.48 µM. For the same compound, the GI50 (HS 578T breast) was 2.58 µM, the TGI (HS 578T breast) was 7.38 µM and the GI50 (SK-MEL-2 melanoma) was 1.79 µM. The TGI (SK-MEL-2 melanoma) was 4.16 µM, the GI50 (U251 CNS) was 2.31 µM and the TGI (U251 CNS) was 5.94 µM. The GI50 (HCC-2998 colon) was 3.12 µM, the TGI (HCC-2998 colon) was 26.5 µM and the GI50 (NCI-H460 lung) was 2.78 µM. For the same compound, the TGI (NCI-H460 lung) was 8.42 µM, the GI50 (PC-3 prostate) was 3.09 µM and the TGI (PC-3 prostate) was > 100 µM. The GI50 (SK-MEL-28 melanoma) was 3.76 µM, the TGI (SK-MEL-28 melanoma) was > 100 µM and the GI50 (BT-549 breast) was 2.36 µM. The TGI (BT-549 breast) was 6.08 µM, the GI50 (DU-145 prostate) was 3.68 µM and the TGI (DU-145 prostate) was > 100 µM. For the same compound, the GI50 (NCI-H522 lung) was 2.71 µM, the TGI (NCI-H522 lung) was 8.62 µM and the GI50 (SW-620 colon) was 3.31 µM. For the same compound, the TGI (SW-620 colon) was 13.6 µM, the GI50 (SNB-75 CNS) was 1.49 µM and the TGI (SNB-75 CNS) was 3.92 µM. For the same compound, the GI50 (SN12C renal) was 2.34 µM, the TGI (SN12C renal) was 6.88 µM and the GI50 (A498 renal) was 2.54 µM. For the same compound, the TGI (A498 renal) was 7.14 µM, the GI50 (K-562 leukemia) was 2.77 µM and the TGI (K-562 leukemia) was 11 µM. For the same compound, the GI50 (HOP-62 NSCLC) was 1.97 µM, the TGI (HOP-62 NSCLC) was 4.91 µM and the GI50 (HCT-15 colon) was 3.07 µM. The TGI (HCT-15 colon) was 28.8 µM, the GI50 (CAKI-1 renal) was 1.71 µM and the TGI (CAKI-1 renal) was 4.83 µM. The GI50 (A549 NSCLC) was 3.09 µM, the TGI (A549 NSCLC) was 47.4 µM and the GI50 (UACC-62 melanoma) was 2.32 µM. For the same compound, the TGI (UACC-62 melanoma) was 6.89 µM, the GI50 (MDA-MB-231 breast) was 1.88 µM and the TGI (MDA-MB-231 breast) was 4.31 µM. For the same compound, the GI50 (T-47D breast) was 2.12 µM, the TGI (T-47D breast) was 6.04 µM and the GI50 (RPMI-8226 leukemia) was 2.1 µM. For the same compound, the TGI (RPMI-8226 leukemia) was 5.67 µM, the GI50 (UO-31 renal) was 2.44 µM and the TGI (UO-31 renal) was 9.57 µM. The GI50 (OVCAR-5 ovarian) was 6.63 µM, the TGI (OVCAR-5 ovarian) was > 100 µM and the GI50 (SR leukemia) was 2.49 µM. The TGI (SR leukemia) was 8.71 µM, the GI50 (SF-539 CNS) was 3.2 µM and the TGI (SF-539 CNS) was 11.6 µM. The GI50 (HL-60(TB) leukemia) was 1.8 µM, the TGI (HL-60(TB) leukemia) was 5.66 µM and the GI50 (SK-MEL-5 melanoma) was 1.72 µM. The TGI (SK-MEL-5 melanoma) was 3.29 µM, the GI50 (OVCAR-8 ovarian) was 3.17 µM and the TGI (OVCAR-8 ovarian) was 32.9 µM. For the same compound, the GI50 (CCRF-CEM leukemia) was 3.31 µM, the TGI (CCRF-CEM leukemia) was 17 µM and the GI50 (ACHN renal) was 3.06 µM. The TGI (ACHN renal) was 11.1 µM, the GI50 (KM12 colon) was 2.78 µM and the TGI (KM12 colon) was 8.1 µM. The GI50 (HT29 colon) was 3.77 µM, the TGI (HT29 colon) was > 100 µM and the GI50 (MDA-MB-468 breast) was 2.2 µM. It also gave a TGI (MDA-MB-468 breast) of 5.76 µM, a GI50 (HOP-92 NSCLC) of 2.42 µM and a TGI (HOP-92 NSCLC) of 5.93 µM. For the same compound, the GI50 (SF-295 CNS) was 2.12 µM, the TGI (SF-295 CNS) was 4.91 µM and the GI50 (SK-OV-3 ovarian) was 2.04 µM. For the same compound, the TGI (SK-OV-3 ovarian) was 5.55 µM, the GI50 (OVCAR-3 ovarian) was 3.04 µM and the TGI (OVCAR-3 ovarian) was 9.16 µM. For the same compound, the GI50 (NCI-H226 lung) was 2.21 µM, the TGI (NCI-H226 lung) was 6.3 µM and the GI50 (OVCAR-4 ovarian) was 3.16 µM. It also gave a TGI (OVCAR-4 ovarian) of 27.1 µM, a GI50 (TK-10 renal) of 3.96 µM and a TGI (TK-10 renal) of 11.1 µM. For the same compound, the GI50 (SF-268 CNS) was 3.1 µM, the TGI (SF-268 CNS) was > 100 µM and the GI50 (786-0 renal) was 3.06 µM. For the same compound, the TGI (786-0 renal) was 9.11 µM, the GI50 (MDA-MB-435) was 2.59 µM and the TGI (MDA-MB-435) was 7.58 µM. For the same compound, the GI50 (MALME-3M melanoma) was 2.98 µM, the TGI (MALME-3M melanoma) was 7.93 µM and the GI50 (SNB-19 CNS) was 3.38 µM. The TGI (SNB-19 CNS) was > 100 µM, the GI50 (NCI-H23 lung) was 2.14 µM and the TGI (NCI-H23 lung) was 6.04 µM. For the same compound, the GI50 (LOX IMVI melanoma) was 3.21 µM, the TGI (LOX IMVI melanoma) was 10.9 µM and the GI50 (RXF 393 renal) was 1.88 µM. It also gave a TGI (RXF 393 renal) of 5.45 µM, a GI50 (HCT-116 colon) of 2.8 µM and a TGI (HCT-116 colon) of 8.81 µM.
